Measured values taken from ChEMBL document CHEMBL4364305, “Medicinal leech antimicrobial peptides lacking toxicity represent a promising alternative strategy to combat antibiotic-resistant pathogens” (Eur J Med Chem, 2019).
Values after ≈ are worked out from the molar mass of the structure shown. Active and inactive are the calls of the source. The calls are words filed in the database; no cut-off is given here. Residues, ends and D or L forms follow the SMILES beside them.

What was measured:
Chlamydia trachomatis = test: Antibacterial activity against Chlamydia trachomatis D/UW-3/Cx infected in mouse McCoy cells assessed as reduction in infected cells preincubated for 2 hrs and measured after 48 hrs by immunofluorescence method; assay type: functional
Escherichia coli [1] = test: Antibacterial activity against Escherichia coli MG1655 assessed as reduction in bacterial cell growth incubated for 24 hrs by microtiter dilution method; assay type: functional; conditions: MG1655, 24 h
Bacillus subtilis [2] = test: Antibacterial activity against Bacillus subtilis 168 HT assessed as reduction in bacterial cell growth incubated for 24 hrs by microtiter dilution method; assay type: functional
Lipid bilayer [3] = test: Disruption of large POPC:POPS unilamellar vesicle membrane assessed as release of carboxyfluorescein measured after 1 min by fluorescence based method
Lipid bilayer [4] = test: Disruption of large POPC:DOPG unilamellar vesicle membrane assessed as release of carboxyfluorescein measured after 1 min by fluorescence based method
Bacillus subtilis [5] = test: Antibacterial activity against Bacillus subtilis 168 HT assessed as reduction in bacterial cell structural integrity at 0.5 antibacterial MIC incubated for 8 or 24 hrs by scanning electron microscopy; assay type: functional, organism-based
Lipid bilayer [6] = test: Disruption of large POPC unilamellar vesicle membrane assessed as release of carboxyfluorescein measured after 1 min by fluorescence based method
Escherichia coli [7] = test: Antibacterial activity against Escherichia coli MG1655 assessed as reduction in bacterial cell structural integrity at 0.5 antibacterial MIC incubated for 8 or 24 hrs by scanning electron microscopy; assay type: functional, organism-based
Bacillus subtilis [8] = test: Induction of morphological changes in Bacillus subtilis 168 HT assessed as cellular debris formation at 0.5 antibacterial MIC incubated for 8 or 24 hrs by scanning electron microscopy; assay type: functional, organism-based
[9] = Cytotoxicity against mouse McCoy cells assessed as cell viability at 0.5 to 4 times of antibacterial MIC incubated for 48 hrs by calcein AM and ethidium homodimer-1 staining based epifluorescence microscopic method relative to control; conditions: read-out: Activity
Lipid bilayer [10] = test: Disruption of large POPS unilamellar vesicle membrane assessed as release of carboxyfluorescein measured after 1 min by fluorescence based method
[11] = Hemolytic activity in human Erythrocyte at 100 uM measured after 1 hr relative to control; assay type: ADME, cell-based; conditions: erythrocytes, read-out: Activity
[12] = Cytotoxicity against mouse McCoy cells assessed as reduction in cell viability at 4 times of antibacterial MIC incubated for 48 hrs by calcein AM and ethidium homodimer-1 staining based epifluorescence microscopic method relative to control
[13] = Hemolytic activity in human Erythrocyte at 50 uM measured after 1 hr relative to control; assay type: ADME, cell-based; conditions: erythrocytes, read-out: Activity
[14] = Hemolytic activity in human Erythrocyte at 6.25 uM measured after 1 hr relative to control; assay type: ADME, cell-based; conditions: erythrocytes, read-out: Activity

SMILES | MIC90 (Chlamydia trachomatis) [µM] | MIC (Escherichia coli [1]) [µM] | MIC (Bacillus subtilis [2]) [µM] | other results
CC[C@H](C)[C@H](NC(=O)[C@H](CC(C)C)NC(=O)[C@@H](N)CS)C(=O)N[C@@H](CCSC)C(=O)N[C@@H](CCCCN)C(=O)N[C@H](C(=O)N[C@@H](CCCNC(=N)N)C(=O)N[C@@H](CCCNC(=N)N)C(=O)N[C@@H](CCCCN)C(=O)N[C@@H](CCCCN)C(=O)O)C(C)C (H-CLIMKVRRKK-OH) | 12.5 (≈ 15.9 µg/mL) | 100 (≈ 128 µg/mL) | 12.6 (≈ 16.1 µg/mL) | 
CC[C@H](C)[C@H](NC(=O)[C@H](CCCNC(=N)N)NC(=O)[C@H](CCSC)NC(=O)[C@@H](NC(=O)[C@H](CCCNC(=N)N)NC(=O)[C@@H](N)Cc1ccccc1)[C@@H](C)CC)C(=O)N[C@@H](CC(C)C)C(=O)N[C@@H](CCCNC(=N)N)C(=O)N[C@H](C(=O)N[C@@H](CC(C)C)C(=O)N[C@@H](CCCCN)C(=O)N[C@@H](CC(C)C)C(=O)O)C(C)C (H-FRIMRILRVLKL-OH) | 3.1 (≈ 4.83 µg/mL) | 10.3 (≈ 16 µg/mL) | 10.3 (≈ 16 µg/mL) | Activity (Lipid bilayer [3]): Dose-dependent effect; Activity (Lipid bilayer [4]): Dose-dependent effect; Activity (Bacillus subtilis [5]): Active; Activity (Lipid bilayer [6]): inactive; Activity (Escherichia coli [7]): Active; Activity (Bacillus subtilis [8]): inactive; viability at 48 h [9]: 100%; Activity (Lipid bilayer [10]): Dose-dependent effect
CC[C@H](C)[C@H](NC(=O)[C@H](CCCCN)NC(=O)[C@H](Cc1ccccc1)NC(=O)[C@H](CCCNC(=N)N)NC(=O)[C@H](CCCCN)NC(=O)[C@@H](NC(=O)[C@@H](NC(=O)[C@H](Cc1ccccc1)NC(=O)CN)[C@@H](C)CC)C(C)C)C(=O)N[C@@H](CC(C)C)C(=O)N[C@H](C(=O)O)C(C)C (H-GFIVKRFKILV-OH) | > 100 | > 97 | 97 (≈ 128 µg/mL) | hemolysis at 1 h, 100 µM [11]: 30%; Activity [12]: 100%
CC[C@H](C)[C@H](N)C(=O)N[C@@H](CCCCN)C(=O)N[C@H](C(=O)N[C@H](C(=O)N[C@@H](C)C(=O)N1CCC[C@H]1C(=O)N[C@@H](CCCCN)C(=O)N[C@@H](CCCCN)C(=O)N[C@H](C(=O)N[C@@H](CCCCN)C(=O)N[C@@H](CC(C)C)C(=O)O)[C@@H](C)CC)C(C)C)[C@@H](C)CC (H-IKIVAPKKIKL-OH) | > 100 | > 102 | > 102 | 
CC[C@H](C)[C@H](N)C(=O)N[C@@H](CO)C(=O)N[C@@H](CCCNC(=N)N)C(=O)N[C@@H](C)C(=O)N[C@@H](CS)C(=O)N[C@@H](CC(C)C)C(=O)N[C@H](C(=O)N[C@@H](CCSC)C(=O)N[C@@H](CCCCN)C(=O)N[C@H](C(=O)N[C@@H](CCCNC(=N)N)C(=O)N[C@@H](CCCNC(=N)N)C(=O)N[C@@H](CCCCN)C(=O)N[C@@H](CCCCN)C(=O)O)C(C)C)[C@@H](C)CC (H-ISRACLIMKVRRKK-OH) | 12.5 (≈ 21.3 µg/mL) | 37.6 (≈ 64 µg/mL) | 9.4 (≈ 16 µg/mL) | 
CC[C@H](C)[C@H](NC(=O)[C@@H](NC(=O)[C@H](CCCCN)NC(=O)[C@H](CCCCN)NC(=O)[C@H](Cc1ccccc1)NC(=O)[C@@H](N)CCCCN)C(C)C)C(=O)N[C@@H](Cc1c[nH]c2ccccc12)C(=O)N[C@@H](CCCCN)C(=O)N[C@@H](CO)C(=O)N[C@@H](Cc1ccccc1)C(=O)N[C@@H](CC(C)C)C(=O)O (H-KFKKVIWKSFL-OH) | 12.5 (≈ 17.8 µg/mL) | 90 (≈ 128 µg/mL) | 45 (≈ 64.1 µg/mL) | hemolysis at 1 h, 50 µM [13]: 50%; viability at 48 h [9]: 100%
CC[C@H](C)[C@H](NC(=O)[C@@H](N)CC(C)C)C(=O)N[C@H](C(=O)N[C@@H](CC(C)C)C(=O)N[C@H](C(=O)N[C@@H](CS)C(=O)N[C@@H](CCCNC(=N)N)C(=O)N[C@@H](CCCCN)C(=O)N[C@@H](CCCCN)C(=O)N[C@@H](CCCCN)C(=O)N[C@@H](CCCCN)C(=O)N1CCC[C@H]1C(=O)N[C@@H](Cc1ccccc1)C(=O)O)[C@@H](C)O)C(C)C (H-LIVLTCRKKKKPF-OH) | 12.5 (≈ 19.7 µg/mL) | > 81 | 40.7 (≈ 64.1 µg/mL) | Activity [12]: 100%
CC[C@H](C)[C@H](NC(=O)CNC(=O)[C@@H](NC(=O)[C@H](CCCCN)NC(=O)[C@@H](NC(=O)CNC(=O)[C@H](CC(C)C)NC(=O)[C@H](Cc1c[nH]c2ccccc12)NC(=O)[C@H](CCCNC(=N)N)NC(=O)[C@@H](N)CC(C)C)[C@@H](C)O)C(C)C)C(=O)N[C@@H](CC(C)C)C(=O)N[C@@H](CCCCN)C(=O)O (H-LRWLGTKVGILK-OH) | > 100 | > 92 | > 92 | 
CC[C@H](C)[C@H](NC(=O)[C@@H](NC(=O)[C@H](CCCNC(=N)N)NC(=O)[C@@H](NC(=O)[C@H](CCCNC(=N)N)NC(=O)[C@H](CCCNC(=N)N)NC(=O)[C@@H](NC(=O)[C@H](CCCNC(=N)N)NC(=O)[C@@H](NC(=O)[C@H](CC(C)C)NC(=O)[C@@H](NC(=O)[C@@H]1CCCN1C(=O)[C@@H](N)CCCNC(=N)N)[C@@H](C)CC)[C@@H](C)CC)C(C)C)[C@@H](C)CC)C(C)C)C(=O)O (H-RPILIRVRRIRVI-OH) | > 100 | 77.1 (≈ 128 µg/mL) | 9.7 (≈ 16.1 µg/mL) | Activity [12]: Toxic
CC(C)C[C@H](NC(=O)[C@H](Cc1ccccc1)NC(=O)[C@H](CS)NC(=O)[C@@H](NC(=O)[C@H](CC(C)C)NC(=O)[C@H](CCCNC(=N)N)NC(=O)[C@H](Cc1c[nH]c2ccccc12)NC(=O)[C@@H](N)CCCNC(=N)N)C(C)C)C(=O)N[C@@H](CS)C(=O)N[C@@H](CCCNC(=N)N)C(=O)N[C@@H](CCCNC(=N)N)C(=O)N[C@@H](CCCCN)C(=O)N[C@@H](CCCCN)C(=O)N[C@H](C(=O)O)C(C)C (H-RWRLVCFLCRRKKV-OH) | 6.3 (≈ 11.7 µg/mL) | 17.2 (≈ 32.1 µg/mL) | 8.6 (≈ 16 µg/mL) | Activity (Lipid bilayer [3]): Dose-dependent effect; hemolysis at 1 h, 100 µM [11]: 30%; Activity (Lipid bilayer [4]): Dose-dependent effect; Activity (Bacillus subtilis [5]): Active; Activity (Lipid bilayer [6]): inactive; Activity (Escherichia coli [7]): Active; viability at 48 h [9]: 100%; Activity (Lipid bilayer [10]): Dose-dependent effect
CC[C@H](C)[C@H](NC(=O)[C@H](CCCCN)NC(=O)[C@@H](N)Cc1c[nH]c2ccccc12)C(=O)N[C@@H](Cc1ccccc1)C(=O)N[C@@H](CCCCN)C(=O)N[C@@H](CC(C)C)C(=O)N[C@@H](CCCCN)C(=O)N[C@@H](CC(C)C)C(=O)N[C@@H](CCCNC(=N)N)C(=O)N[C@@H](CCSC)C(=O)N[C@@H](CC(C)C)C(=O)N[C@@H](Cc1c[nH]c2ccccc12)C(=O)O (H-WKIFKLKLRMLW-OH) | 50 (≈ 83.1 µg/mL) | 77 (≈ 128 µg/mL) | 38.5 (≈ 64 µg/mL) | hemolysis at 1 h, 6.25 µM [14]: 50%
CC[C@H](C)[C@H](NC(=O)CNC(=O)[C@H](C)NC(=O)[C@H](Cc1cnc[nH]1)NC(=O)[C@@H](NC(=O)[C@H](CCCCN)NC(=O)[C@H](Cc1ccc(O)cc1)NC(=O)[C@@H]1CCCN1C(=O)[C@@H](NC(=O)[C@H](CC(C)C)NC(=O)[C@H](CCCCN)NC(=O)[C@H](CCCCN)NC(=O)[C@@H](N)Cc1c[nH]c2ccccc12)C(C)C)[C@@H](C)CC)C(=O)O (H-WKKLVPYKIHAGI-OH) | > 100 | > 82 | > 82 | 
CC[C@H](C)[C@H](NC(=O)CN)C(=O)NCC(=O)N[C@@H](C)C(=O)N[C@H](C(=O)N[C@@H](CC(C)C)C(=O)N[C@@H](CCCCN)C(=O)N[C@H](C(=O)N[C@@H](CC(C)C)C(=O)N[C@H](C(=O)N[C@H](C(=O)NCC(=O)N[C@@H](CC(C)C)C(=O)N1CCC[C@H]1C(=O)N[C@@H](C)C(=O)N[C@@H](CC(C)C)C(=O)N[C@H](C(=O)N[C@@H](CO)C(=O)N[C@@H](Cc1c[nH]c2ccccc12)C(=O)N[C@H](C(=O)N[C@@H](CCCCN)C(=O)N[C@@H](CCCNC(=N)N)C(=O)N[C@@H](CCCCN)C(=O)N[C@@H](CCCNC(=N)N)C(=O)N[C@@H](CCC(N)=O)C(=O)N[C@@H](CCC(N)=O)C(N)=O)[C@@H](C)CC)[C@@H](C)CC)[C@@H](C)O)[C@@H](C)O)C(C)C)C(C)C [MELITTIN] | 2 (≈ 5.69 µg/mL) |  |  | 
